Assay results: patent US20080226718A1, “Indole and Azaindole Derivatives For the Treatment of Inflammatory and Autoimmune Diseases” (Brane Discovery S.r.l, priority 2005, published 2008)

Experiments:
PMNs [1] = assay: Chemokine-induced rapid adhesion of PMNs to fibrinogen (fMLP); format: cell-based; conditions: Homo sapiens, 2 min, fMLP 100 nM; for inhibition at 10 µM: [cpd] 10 μM; for inhibition at 25 µM: [cpd] 25 μM; for inhibition at 50 µM: [cpd] 50 μM
Experimental: (§1) Adhesion was performed on purified integrin ligands and was evaluated as reported in Constantin G. et al., Immunity, 16, 759-769, 2000. Briefly, primary naïve lymphocytes, polymorphonuclear neutrophils (PMNs) or monocytes were isolated form healthy donors. In other experiments, murine autoreactive T cells were obtained from SJL mice immunized with PLP139-151 as described (Piccio L. et al., J. Immunol, 168, 1940-1949, 2002). Cells were resuspended at 4×10^6/ml in PBS, CaCl2, MgCl2 1 mM, 10% FCS, pH 7.2. Adhesion assays were performed on eighteen well glass slides coated overnight at 4° C. with ligands for CR3 (fibrinogen) or LFA-1 (ICAM-1). 20 μl of cell suspension were added to the wells and stimulated at 37° C. with 5 μl of agonists prior to washing, fixation and computer-assisted enumeration of bound cells.
(§2) Integrin activation was measured as induction of rapid adhesion triggered by the classical chemoattractant N-formyl-L-methionyl-L-leucyl-phenylalanine (fMLP) (100 nM) or by the CC chemokine MIP3β (CCL19, 1 μM). PMNs and monocytes were triggered to adhere to fibrinogen (CR3 ligand); naive human lymphocytes or murine encephalitogenic T cells were triggered to adhere to ICAM-1 (LFA-1 ligand). Triggered adhesion was evaluated after 2 min of stimulation under static conditions. The cells were pretreated at 37° C. for 30-60 min with the indicated concentrations of the test compound. Results are expressed as percentage of inhibition over control (=100%) and are the mean of three experiments in the case of human leukocytes. Results are expressed as mean counts and are the mean counts ±S.D of three experiments and are the mean of three experiments in the case of murine encephalitogenic lymphocytes.
(§3) Integrin activation was measured as induction of rapid adhesion triggered by the “classical” chemoattractant fMLP (100 nM) or by the CC chemokine MIP3β (CCL19, 1 μM). PMNs were triggered to adhere to fibrinogen (CR3 ligand); lymphocytes were triggered to adhere to ICAM-1 (LFA-1 ligand).

lymphocytes [2] = assay: Chemokine-induced rapid adhesion of lymphocytes to ICAM-1 (MIP3β); format: cell-based; conditions: Homo sapiens, Lymphocyte, MIP3β 1 μM; for inhibition at 10 µM: [cpd] 10 μM, read-out: Inhibition of Adhesion (%) Lymphocytes (MIP3-β); for inhibition at 25 µM: [cpd] 25 μM; for inhibition at 25 µM / inhibition at 50 µM: read-out: Inhibition of Adhesion (%) Lymphocytes (MIP3-β) (converted); for inhibition at 50 µM: [cpd] 50 μM
Experimental: as §1, §2, §3

monocytes [3] = assay: Chemokine-induced rapid adhesion of monocytes to fibrinogen (fMLP); format: cell-based; conditions: Homo sapiens, Monocyte, fMLP 100 nM; for inhibition at 10 µM: [cpd] 10 μM; for inhibition at 25 µM: [cpd] 25 μM; for inhibition at 50 µM: [cpd] 50 μM
Experimental: as §1, §2

PMNs [4] = assay: Chemotaxis assay, PMNs (fMLP); format: cell-based; conditions: Homo sapiens, fMLP 10 nM, 2 h; for inhibition at 10 µM: [cpd] 10 μM; for inhibition at 25 µM: [cpd] 25 μM; for inhibition at 50 µM: [cpd] 50 μM
Experimental: (§4) PMNs and monocytes migration was assessed using 1 or 3-μm pore size transwells (Bio-Coat Becton-Dickinson), while lymphocytes by using 5-elm pore size transwells.
(§5) Cells were in RPMI1640, containing 10% heat-inactivated Fetal Calf Serum (FCS) and 20 mM HEPES, pH 7.3, at 2×10^6/ml. 100 μl of cell suspension were added to the top well, and 600 μl of medium, containing chemoattractants and test compound, were added to the bottom well. Migration was evaluated after 2 h for PMNs and monocytes and after 4 h for lymphocytes. fMLP 10 nM (PMNs and monocytes) and MIP-3β 100 nM (lymphocytes) were utilized as chemoattractants. After fixation with 1.5% glutaraldehyde, migrated cells were counted by fluorescence-activated celli sorting using polystyrene beads (Polyscience) as an internal standard (Campbell J. J. et al. J. Cell. Biol. 134, 255-266, 1996; Laudanna C. et al. J. Biol. Chem. 273,46, 30306-30315, 1998).
(§6) Results are expressed as percentage of inhibition over control (=100%), and are the mean of three experiments.

lymphocytes [5] = assay: Chemotaxis assay, lymphocytes (MIP-3β); format: cell-based; conditions: Homo sapiens, Lymphocyte, MIP-3β 100 nM, 4 h; for inhibition at 10 µM: [cpd] 10 μM, read-out: Inhibition of Chemotaxis (%) Lymphocytes (MIP3-β); for inhibition at 25 µM: [cpd] 25 μM; for inhibition at 25 µM / inhibition at 50 µM: read-out: Inhibition of Chemotaxis (%) Lymphocytes (MIP3-β) (converted); for inhibition at 50 µM: [cpd] 50 μM
Experimental: as §4, §5, §6

monocytes [6] = assay: Chemotaxis assay, monocytes (fMLP); format: cell-based; conditions: Homo sapiens, Monocyte, fMLP 10 nM, 2 h; for inhibition at 10 µM: [cpd] 10 μM; for inhibition at 25 µM: [cpd] 25 μM; for inhibition at 50 µM: [cpd] 50 μM
Experimental: as §4, §5, §6

[7] = system: encephalitogenic lymphocytes; assay: Spontaneous adhesion of encephalitogenic T cells on purified ICAM-1; format: cell-based, SJL mice; conditions: Mus musculus, Lymphocyte, 1 h; for inhibition at 5 µM: [cpd] 5 μM, read-out: Inhibition of Spontaneous Adhesion in encephalitogenic lymphocytes (% of control/non-treated cells) ICAM-1; for inhibition at 10 µM: [cpd] 10 μM; for inhibition at 10 µM / inhibition at 50 µM: read-out: Inhibition of Spontaneous Adhesion in encephalitogenic lymphocytes (% of control/non-treated cells) ICAM-1 (converted); for inhibition at 50 µM: [cpd] 50 μM
Experimental: Spontaneous adhesion of encephalitogenic lymphocytes was measured in adhesion assays on purified ICAM-1 and VCAM-1 as previously described (Constantin G. et al., J. Immunol. 162, 1144-1149, 1999). Autoreactive T cells were obtained from SJL mice immunized with PLP139-151 as described (Piccio L. et al., J. Immunol. 168, 1940-1949, 2002). Lymphocytes were treated with test compound at concentrations between 5-100 μM for 1 h, while control/untreated cells were treated with vehicle (DMSO). Results are expressed as percentage of inhibition over control (=100%) ±S.D and are the mean of three-four experiments.
ICAM-1 and VCAM-1 are adhesion molecules from the family of immunoglobulins and control the migration of lymphocytes through the endothelium during inflammatory responses. Encephalitogenic T cells are activated lymphocytes displaying spontaneous adhesion on ICAM-1 and VCAM-1 and have increased migration capacities in inflammation sites. Spontaneous adhesion of encephalitogenic lymphocytes was measured in adhesion assays on purified ICAM-1 and VCAM-1 as described in the method.

[8] = system: encephalitogenic lymphocytes; assay: Chemokine-induced adhesion of murine encephalitogenic T cells to ICAM-1; format: cell-based, SJL mice; conditions: ICAM-1; for Chemokine-induced Adhesion in encephalitogenic lymphocytes, Mean counts ± S.D., in presence of MIP3-β stimulation: 1 μM CCL19 (MIP-3beta)
Experimental: as §1, §2
Chemokines trigger rapid arrest of lymphocytes in blood vessels through pertussis toxin-sensitive G protein coupled receptors. Rapid adhesion to purified ICAM-1 was measured in in vitro adhesion assays using control/untreated cells and lymphocytes treated with concentration between 5-50 μM for 1 h. Autoreactive lymphocytes were then stimulated with 1 μM CCL19 (MIP-3beta) for 3 min. […] These compounds were already efficient in blocking adhesion using a concentration of 5 μM for the cell treatment.

| Compound | inhibition at 10 µM (PMNs [1]) [%] | inhibition at 25 µM (PMNs [1]) [%] | inhibition at 50 µM (PMNs [1]) [%] | inhibition at 10 µM (lymphocytes [2]) [%] | inhibition at 25 µM (lymphocytes [2]) [%] | inhibition at 50 µM (lymphocytes [2]) [%] | inhibition at 10 µM (monocytes [3]) [%] | inhibition at 25 µM (monocytes [3]) [%] | inhibition at 50 µM (monocytes [3]) [%] | inhibition at 10 µM (PMNs [4]) [%] | inhibition at 25 µM (PMNs [4]) [%] | inhibition at 50 µM (PMNs [4]) [%] | inhibition at 10 µM (lymphocytes [5]) [%] | inhibition at 25 µM (lymphocytes [5]) [%] | inhibition at 50 µM (lymphocytes [5]) [%] | inhibition at 10 µM (monocytes [6]) [%] | inhibition at 25 µM (monocytes [6]) [%] | inhibition at 50 µM (monocytes [6]) [%] | inhibition at 5 µM [7] [%] | inhibition at 10 µM [7] [%] | other results |
| --- | --- | --- | --- | --- | --- | --- | --- | --- | --- | --- | --- | --- | --- | --- | --- | --- | --- | --- | --- | --- | --- |
| COc1cc2[nH]c(C(=O)N(C)C)c(-c3ccccc3)c2cc1OC [Example 46] | 16.7 | 28.7 | 38.4 | 34.1 | 58.8 | 67.1 | 12.6 | 32.2 | 37.6 | 65.3 | 74.5 | 93.1 | 19.9 | 45 | 85 | 48.2 | 63.8 | 89.9 | 15.8 | 25.9 | inhibition at 50 µM [7]: 96.3% |
| COc1ccc(-c2c(-c3nnc(C)o3)[nH]c3cc(OC)c(OC)cc23)cc1 [Example 77] | 17.4 | 24.7 | 30.5 | 15.9 | 20.7 | 30.5 | 3.5 | 33.4 | 50.8 | 51.3 | 49.4 | 59.5 | 13.6 | 25.4 | 33.8 | 40.6 | 48.9 | 59 | 25.9 | 34.8 | inhibition at 50 µM [7]: 95.9% |
| CNC(=O)c1[nH]c2cc(OC)c(OC)cc2c1-c1ccccc1 [Example 48] | 18 | 48.9 | 53.7 | 53.7 | 77.3 | 91.5 | 7.5 | 22.5 | 31.7 | 82.4 | 87.8 | 96.4 | 48.9 | 77.3 | 94.9 | 71.7 | 90.4 | 96.5 | 37.5 | 65.6 | inhibition at 50 µM [7]: 95.6% |
| COc1ccc(-c2c3n(c4cc(OC)c(OC)cc24)CC(=O)NC3)cc1 [Example 66] | 6.1 | 11.5 | 17.2 | 61.3 | 68.1 | 79 | 11.3 | 28.7 | 40.4 | 50 | 77.8 | 92.6 | 57.5 | 89.6 | 87.7 | 43.9 | 74.4 | 92.7 | 15 | 33.7 | inhibition at 50 µM [7]: 92.9% |
| COc1ccc(-c2c(C(N)=O)[nH]c3cc(OC)c(OC)cc23)cc1 [Example 14] |  |  |  |  |  |  |  |  |  |  |  |  |  |  |  |  |  |  |  |  | Chemokine-induced Adhesion in encephalitogenic lymphocytes, Mean counts ± S.D., in presence of MIP3-β stimulation ([8]; [cpd] 1 μM): 120.3 ± 9.8; Adhesion in encephalitogenic lymphocytes, Mean counts ± S.D., in absence of MIP3-β stimulation ([8]; [cpd] 1 μM): 67.6 ± 2.0; Chemokine-induced Adhesion in encephalitogenic lymphocytes, Mean counts ± S.D., in presence of MIP3-β stimulation ([8]; [cpd] 5 μM): 101.2 ± 6.1; Adhesion in encephalitogenic lymphocytes, Mean counts ± S.D., in absence of MIP3-β stimulation ([8]; [cpd] 5 μM): 41.8 ± 4.2; Chemokine-induced Adhesion in encephalitogenic lymphocytes, Mean counts ± S.D., in presence of MIP3-β stimulation ([8]; [cpd] 50 μM): 56.8 ± 2.2; Adhesion in encephalitogenic lymphocytes, Mean counts ± S.D., in absence of MIP3-β stimulation ([8]; [cpd] 50 μM): 20.9 ± 11.7 |
| COc1cc2[nH]c(C(=O)N3CCOCC3)c(-c3ccccc3)c2cc1OC [Example 47] | 16.6 | 37.1 | 45.4 | 43.8 | 52.5 | 77.5 | 8.7 | 14.4 | 22.4 | 75.4 | 87.5 | 96.1 | 44.3 | 66.6 | 88.2 | 56.5 | 82.4 | 93.9 | 7.1 | 17.2 | inhibition at 50 µM [7]: 93.4% |
| COc1ccc(-c2c3n(c4cc(OC)c(OC)cc24)CCOC3)cc1 [Example 76] |  |  |  |  |  |  |  |  |  |  |  |  |  |  |  |  |  |  |  |  | inhibition at 100 µM (PMNs [1]; [cpd] 100 μM): 66%; Chemokine-induced Adhesion in encephalitogenic lymphocytes, Mean counts ± S.D., in presence of MIP3-β stimulation ([8]; [cpd] 1 μM): 102.9 ± 2.9; Adhesion in encephalitogenic lymphocytes, Mean counts ± S.D., in absence of MIP3-β stimulation ([8]; [cpd] 1 μM): 36.9 ± 4.0; Chemokine-induced Adhesion in encephalitogenic lymphocytes, Mean counts ± S.D., in presence of MIP3-β stimulation ([8]; [cpd] 5 μM): 87.7 ± 12.0; Adhesion in encephalitogenic lymphocytes, Mean counts ± S.D., in absence of MIP3-β stimulation ([8]; [cpd] 5 μM): 28.3 ± 8.9; Chemokine-induced Adhesion in encephalitogenic lymphocytes, Mean counts ± S.D., in presence of MIP3-β stimulation ([8]; [cpd] 50 μM): 66.6 ± 1.8; Adhesion in encephalitogenic lymphocytes, Mean counts ± S.D., in absence of MIP3-β stimulation ([8]; [cpd] 50 μM): 23.0 ± 1.9 |
